How the values were obtained:
[1] = tested on: OVCAR8; test: drug sensitivity score (DSS2) on cancer cell count; higher = more sensitive; extreme values may be limits of the assay; conditions: 72 h
Summary of the method: (§1)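 Ovarian cancer cells grown alone or 1:1 with lung or skin fibroblasts in direct co-culture were treated for 72 h on 384-well plates carrying 528 approved and investigational compounds at 5 concentrations. Fixed cells were stained for CK8/18 with Hoechst and imaged to count cancer cells. A drug sensitivity score was then derived in Breeze from logistic curve fits.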

[2] = tested on: KURAMOCHI; test: as above; conditions: 72 h
Summary of the method: as §1

[3] = co-cultured fibroblast: BJHTERT
[4] = co-cultured fibroblast: none (monoculture)

| Structure (SMILES) | drug sensitivity score [1, 3] | drug sensitivity score ([1]; co-cultured fibroblast: WI38) | drug sensitivity score [1, 4] | drug sensitivity score [2, 3] | drug sensitivity score ([2]; co-cultured fibroblast: WI38) | drug sensitivity score [2, 4] |
| --- | --- | --- | --- | --- | --- | --- |
| Cc1ccc(F)c(NC(=O)Nc2ccc(-c3cccc4[nH]nc(N)c34)cc2)c1 [Linifanib] | 0 DSS | 0 DSS | 0.5 DSS | 0 DSS | 0 DSS | 0 DSS |
| C[C@]1(O)C[C@@H](c2nc(-c3ccc4ccc(-c5ccccc5)nc4c3)c3c(N)nccn32)C1 [Linsitinib] | 0 DSS | 0 DSS | 1.7 DSS | 0 DSS | 0 DSS | 0 DSS |
| CCNCCS(=O)(=O)NC[C@@]1(c2ccccc2)SC(NC(=O)C(C)(C)C)=NN1C(=O)C(C)(C)C [Litronesib] | 27.8 DSS | 28.8 DSS | 27 DSS | 19.2 DSS | 22.8 DSS | 12.2 DSS |
| Nc1nc(OCc2cc(Br)cs2)c2[nH]cnc2n1 [Lomeguatrib] | 0 DSS | 0.8 DSS | 0 DSS | 0 DSS | 0 DSS | 0 DSS |
| NC(=O)N1CCC(CC(=O)N2CCC([C@H]3c4ncc(Br)cc4CCc4cc(Cl)cc(Br)c43)CC2)CC1 [Lonafarnib] | 14.5 DSS | 4.9 DSS | 10.3 DSS | 13 DSS | 13.9 DSS | 13.2 DSS |
| Cc1c(F)cc(C(=O)NC2CC2)cc1-c1ccc(C(=O)NCC(C)(C)C)cn1 [Losmapimod] | 0.7 DSS | 0 DSS | 1.5 DSS | 2.4 DSS | 0 DSS | 0 DSS |
| CC[C@H](C)C(=O)O[C@H]1C[C@@H](C)C=C2C=C[C@H](C)[C@H](CC[C@@H]3C[C@@H](O)CC(=O)O3)[C@H]21 [Lovastatin] | 1.7 DSS | 8.4 DSS | 2.1 DSS | 0.3 DSS | 3.4 DSS | 5.4 DSS |
| CNC(=O)c1cccc2cc(Oc3ccnc4cc(OCC5(N)CC5)c(OC)cc34)ccc12 [Lucitanib] | 3.3 DSS | 6 DSS | 3.4 DSS | 4.3 DSS | 4.3 DSS | 2.4 DSS |
| CCNC(=O)c1noc(-c2cc(C(C)C)c(O)cc2O)c1-c1ccc(CN2CCOCC2)cc1 [Luminespib] | 28.3 DSS | 29.8 DSS | 29.9 DSS | 19.7 DSS | 20.9 DSS | 22.9 DSS |
| O=C(O)CC[C@H]1CC[C@@](c2cc(F)ccc2F)(S(=O)(=O)c2ccc(Cl)cc2)CC1 [MK-0752] | 3.7 DSS | 0 DSS | 0 DSS | 0 DSS | 0 DSS | 0 DSS |
| NC1(c2ccc(-c3nc4ccn5c(=O)[nH]nc5c4cc3-c3ccccc3)cc2)CCC1 [MK-2206] | 0.2 DSS | 0 DSS | 0.3 DSS | 5.8 DSS | 1.4 DSS | 16.1 DSS |
| O=C(c1cccc(Cl)c1F)N1CCN(Cc2cccc(Nc3nccs3)n2)CC1 [MK-8745] | 12.5 DSS | 14.3 DSS | 13.9 DSS | 11.8 DSS | 14.3 DSS | 13.4 DSS |
| Cn1cc(-c2cnn3c(N)c(Br)c([C@@H]4CCCNC4)nc23)cn1 [MK-8776] | 7.8 DSS | 0.2 DSS | 0 DSS | 1.2 DSS | 0 DSS | 1.6 DSS |
| Cc1cnc(-c2ccccc2C(C)C)nc1NCc1ccc(-n2ccnn2)cc1 [ML323] | 2.9 DSS | 0 DSS | 3.8 DSS | 0 DSS | 1.3 DSS | 1.9 DSS |
| O=C(CCNC(=O)c1ccc(OC(F)(F)F)cc1)N[C@@H]1CCCc2ccccc21 [ML390] | 8.5 DSS | 0 DSS | 8.1 DSS | 3.4 DSS | 2.9 DSS | 4 DSS |
| O=C(Nc1cccc(NC(=O)c2cccc(O)c2O)c1)c1cccc(O)c1O [MST-312] | 10.9 DSS | 15.4 DSS | 18.1 DSS | 12 DSS | 9.8 DSS | 15.1 DSS |
| CNC(=O)[C@@H](NC(=O)[C@H](CC(C)C)[C@H](O)C(=O)NO)C(C)(C)C [Marimastat] | 0.2 DSS | 1.4 DSS | 0.7 DSS | 0 DSS | 0 DSS | 0 DSS |
| Cc1ccc(NC(=O)c2ccc(CN3CCN(C)CC3)cc2)cc1Nc1nc(-c2cccnc2)cs1 [Masitinib] | 3.9 DSS | 0.2 DSS | 0.2 DSS | 2 DSS | 1.6 DSS | 0 DSS |
| CC(=O)O[C@]1(C(C)=O)CC[C@H]2[C@@H]3C=C(C)C4=CC(=O)CC[C@]4(C)[C@H]3CC[C@@]21C [Megestrol acetate] | 0 DSS | 0 DSS | 0 DSS | 0 DSS | 6 DSS | 0 DSS |
| CCN(CC)CCCC(C)Nc1c2ccc(Cl)cc2nc2ccc(OC)cc12 (stereo not drawn) [Mepacrine] | 19.8 DSS | 14.2 DSS | 14.4 DSS | 13.8 DSS | 13.8 DSS | 19.1 DSS |
| S=c1[nH]cnc2nc[nH]c12 [Mercaptopurine] | 0 DSS | 0 DSS | 5.4 DSS | 0.1 DSS | 0.3 DSS | 0 DSS |
| Cc1ccc(C(=O)Nc2ccc(Oc3cc4cnn(C)c4cc3-c3cn[nH]c3)c(F)c2)c(=O)n1-c1ccc(F)cc1 [Merestinib] | 0 DSS | 0 DSS | 0.1 DSS | 0 DSS | 1.5 DSS | 1.5 DSS |
| CN(C)C(=N)NC(=N)N [Metformin] | 0 DSS | 0 DSS | 0 DSS | 0 DSS | 0 DSS | 0 DSS |

Source: the supplement of paper PMC12420376
